Assay results from patent US20240425523A1, “Compounds for the Degradation of EGFR Kinase” (Beigene Switzerland GMBH, priority 2023, published 2024).

Legend:
Assay type in all cases: cell-based
[1] = target: T1, EGFR L858R (BaF3-L858R cells) (Homo sapiens, UniProt P00533, L858R); assay: Cell degradation of EGFR, HTRF assay, BaF3-L858R cells; conditions: 16 h treatment; for DC50: EGFR degradation; for Dmax: maximum percentage of degradation
T1 construct: host or cells: BaF3
Method in brief: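 BaF3-L858R cells treated 16 h at 37° C, 5% CO2 with compound (top 10 uM final, 5-fold, 8 doses, 0.1% DMSO). DC50 from four-parameter fit; Dmax is maximum percent degradation.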

[2] = target: T2, EGFR-L858R/C797S (H1975-clone #8 cells) (Homo sapiens, UniProt P00533, C797S/L858R); assay: Cell degradation of EGFR, HTRF assay, H1975-clone#8 (L858R/C797S) cells; conditions: 16 h treatment; for DC50: EGFR degradation; for Dmax: maximum percentage of degradation
T2 construct: expressed in transfected cells; host or cells: H1975 (endogenous EGFR knocked out, clone #8)

[3] = target: T3, p-EGFR L858R (BaF3-L858R cells) (Homo sapiens, UniProt P00533, L858R); assay: Cell p-EGFR inhibition assay, HTRF, BaF3-L858R cells; conditions: 16 h treatment; for Imax (%): maximum percentage of pEGFR inhibition; for IC50: pEGFR inhibition
T3 construct: host or cells: BaF3
Method in brief: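 BaF3-L858R cells treated 16 h at 37 °C, 5% CO2 with compound from 10 uM top, 5-fold dilutions, 8 doses, in 0.1% DMSO medium. Lysates read overnight by HTRF p-EGFR antibodies; IC50 fitted to four-parameter curve against DMSO high control.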

[4] = target: p-EGFR Del19/C797S (H1975-clone #23 cells) (Homo sapiens, UniProt P00533); assay: Cell p-EGFR inhibition assay, HTRF, H1975-clone#23 (DEL19/C797S) cells; conditions: 16 h treatment; for Imax (%): maximum percentage of pEGFR inhibition; for IC50: pEGFR inhibition
Method in brief: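 Phospho-EGFR read by overnight HTRF on lysates, normalized to DMSO-treated high control; IC50, Hill slope and Imax fitted. Compounds were applied for 16 h (10 uM top, 5-fold steps, 8 doses) to an H1975 single clone carrying only exogenous Del19/C797S EGFR after sgRNA knockout of endogenous copies.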

Compound	DC50 [1] [nM]	Dmax [1] [%]	DC50 [2] [nM]	Dmax [2] [%]	Imax (%) [3] [%]	IC50 [3] [nM]	Imax (%) [4] [%]	IC50 [4] [nM]
COC[C@@H]1CN(c2cc3c(cc2OC)N/C2=N\C(=O)c4cc(C)nc(c4)-c4c(C)nn(C)c4OC[C@H]4CC[C@H](C4)CN23)CCN1C1CCN(c2cc(F)c([C@H]3CCC(=O)NC3=O)c(F)c2)CC1 [Example 151, (R)-3-(2,6-difluoro-4-(4-((S)-4-((7^1R,7^3S,E)-5^5-methoxy-1^1,1^3,2^6-trimethyl-3-oxo-5^2,5^3-dihydro-1^1H,5^1H-9-oxa-4-aza-5(2,1)-benzo[d]imidazola-2(2,4)-pyridina-1(4,5)-pyrazola-7(1,3)-cyclopentanacyclononaphane-5^6-yl)-2-(methoxymethyl)piperazin-1-yl)piperidin-1-yl)phenyl)piperidine-2,6-dione]	1.68	90.6	2.62	88.5	95.95	5.03	99.54	1.02
COc1cc2c(cc1N1CCN(C3CCN(c4cc(F)c([C@H]5CCC(=O)NC5=O)c(F)c4)CC3)CC1)N1C[C@@H]3CC[C@H](COc4c(c(C)nn4C)-c4cc(cc(C)n4)C(=O)/N=C/1N2)C3 [Example 152, (R)-3-(2,6-difluoro-4-(4-(4-((7^1R,7^3S,E)-5^5-methoxy-1^1,1^3,2^6-trimethyl-3-oxo-5^2,5^3-dihydro-1^1H,5^1H-9-oxa-4-aza-5(2,1)-benzo[d]imidazola-2(2,4)-pyridina-1(4,5)-pyrazola-7(1,3)-cyclopentanacyclononaphane-5^6-yl)piperazin-1-yl)piperidin-1-yl)phenyl)piperidine-2,6-dione]	1.19	86.6	1.28	88.7	95.61	15	100.06	2.46
Cc1cc2cc(n1)-c1c(C)nn(C)c1OC[C@H]1CC[C@H](C1)CN1/C(=N/C2=O)Nc2ccc(N3CC(N(C)C4CCN(c5cc(F)c([C@H]6CCC(=O)NC6=O)c(F)c5)CC4)C3)cc21 [Example 153, (R)-3-(2,6-difluoro-4-(4-(methyl(1-((7^1R,7^3S,E)-1^1,1^3,2^6-trimethyl-3-oxo-5^2,5^3-dihydro-1^1H,5^1H-9-oxa-4-aza-5(2,1)-benzo[d]imidazola-2(2,4)-pyridina-1(4,5)-pyrazola-7(1,3)-cyclopentanacyclononaphane-5^6-yl)azetidin-3-yl)amino)piperidin-1-yl)phenyl)piperidine-2,6-dione]	2.8	84.4	2.92	87	97.42	11.1	100.23	1.56
COC[C@H]1CN(c2ccc3c(c2)N2C[C@@H]4CC[C@H](COc5c(c(C)nn5CCO)-c5cc(cc(C)n5)C(=O)/N=C/2N3)C4)CCN1C1CCN(c2cc(F)c([C@H]3CCC(=O)NC3=O)c(F)c2)CC1 [Example 156, (R)-3-(2,6-difluoro-4-(4-((R)-4-((7^1R,7^3S,E)-1^1-(2-hydroxyethyl)-1^3,2^6-dimethyl-3-oxo-5^2,5^3-dihydro-1^1H,5^1H-9-oxa-4-aza-5(2,1)-benzo[d]imidazola-2(2,4)-pyridina-1(4,5)-pyrazola-7(1,3)-cyclopentanacyclononaphane-5^6-yl)-2-(methoxymethyl)piperazin-1-yl)piperidin-1-yl)phenyl)piperidine-2,6-dione]	2.11	87.4	2.73	88	95.16	4.81	100.92	0.789
COC[C@@H]1CN(c2ccc3c(c2)N2C[C@@H]4CC[C@H](COc5c(c(C)nn5CCO)-c5cc(cc(C)n5)C(=O)/N=C/2N3)C4)CCN1C1CCN(c2cc(F)c([C@H]3CCC(=O)NC3=O)c(F)c2)CC1 [Example 157, (R)-3-(2,6-difluoro-4-(4-((S)-4-((7^1R,7^3S,E)-1^1-(2-hydroxyethyl)-1^3,2^6-dimethyl-3-oxo-5^2,5^3-dihydro-1^1H,5^1H-9-oxa-4-aza-5(2,1)-benzo[d]imidazola-2(2,4)-pyridina-1(4,5)-pyrazola-7(1,3)-cyclopentanacyclononaphane-5^6-yl)-2-(methoxymethyl)piperazin-1-yl)piperidin-1-yl)phenyl)piperidine-2,6-dione]	2.03	85.8	1.88	88	96.89	2.87	100.52	1.1
Cc1cc2cc(n1)-c1c(C)nn(C)c1OC[C@H]1CC[C@H](C1)CN1/C(=N/C2=O)Nc2ccc(N3CCC(NC4CN(c5c(F)cc(OC6CCC(=O)NC6=O)cc5F)C4)CC3)cc21 (some centres unmarked) [Example 158, 3-(3,5-difluoro-4-(3-((1-((7^1R,7^3S,E)-1^1,1^3,2^6-trimethyl-3-oxo-5^2,5^3-dihydro-1^1H,5^1H-9-oxa-4-aza-5(2,1)-benzo[d]imidazola-2(2,4)-pyridina-1(4,5)-pyrazola-7(1,3)-cyclopentanacyclononaphane-5^6-yl)piperidin-4-yl)amino)azetidin-1-yl)phenoxy)piperidine-2,6-dione]	3.75	79.8	4.39	77.3	95.45	72.6	100.46	3.65
COCCn1nc(C)c2c1OC[C@H]1CC[C@H](C1)CN1/C(=N/C(=O)c3cc(C)nc-2c3)Nc2ccc(N3CCN(C4CCN(c5cc(F)c([C@H]6CCC(=O)NC6=O)c(F)c5)CC4)[C@@H](COC)C3)cc21 [Example 160, (R)-3-(2,6-difluoro-4-(4-((R)-4-((7^1R,7^3S,E)-1^1-(2-methoxyethyl)-1^3,2^6-dimethyl-3-oxo-5^2,5^3-dihydro-1^1H,5^1H-9-oxa-4-aza-5(2,1)-benzo[d]imidazola-2(2,4)-pyridina-1(4,5)-pyrazola-7(1,3)-cyclopentanacyclononaphane-5^6-yl)-2-(methoxymethyl)piperazin-1-yl)piperidin-1-yl)phenyl)piperidine-2,6-dione]	3.08	76.5	3.01	88.2	94.19	3.02	95.87	0.59
COCCn1nc(C)c2c1OC[C@H]1CC[C@H](C1)CN1/C(=N/C(=O)c3cc(C)nc-2c3)Nc2ccc(N3CCN(C4CCN(c5cc(F)c([C@H]6CCC(=O)NC6=O)c(F)c5)CC4)CC3)cc21 [Example 161, (R)-3-(2,6-difluoro-4-(4-(4-((7^1R,7^3S,E)-1^1-(2-methoxyethyl)-1^3,2^6-dimethyl-3-oxo-5^2,5^3-dihydro-1^1H,5^1H-9-oxa-4-aza-5(2,1)-benzo[d]imidazola-2(2,4)-pyridina-1(4,5)-pyrazola-7(1,3)-cyclopentanacyclononaphane-5^6-yl)piperazin-1-yl)piperidin-1-yl)phenyl)piperidine-2,6-dione]	7.2	91.4	2.96	89.3	93.23	4.51	95.04	0.49
Cc1cc2cc(n1)-c1cnn(C)c1OC[C@H]1CC[C@H](C1)CN1/C(=N/C2=O)Nc2ccc(N3CCN(C4CCN(c5ccc([C@H]6CCC(=O)NC6=O)nc5C)CC4)[C@H](C)C3)cc21 [Example 162, 3-(5-(4-((R)-4-((7^1R,7^3S,E)-1^1,2^6-dimethyl-3-oxo-5^2,5^3-dihydro-1^1H,5^1H-9-oxa-4-aza-5(2,1)-benzo[d]imidazola-2(2,4)-pyridina-1(4,5)-pyrazola-7(1,3)-cyclopentanacyclononaphane-5^6-yl)-2-methylpiperazin-1-yl)piperidin-1-yl)-6-methylpyridin-2-yl)piperidine-2,6-dione]	4.86	88.6	3.14	85.4	93.37	3.68	95.16	0.21
Cc1cc2cc(n1)-c1c(C)nn(C)c1OC[C@H]1CC[C@H](C1)CN1/C(=N/C2=O)Nc2ccc(N3CCN(C4CCN(c5cc(F)c([C@H]6CCC(=O)NC6=O)c(F)c5)CC4)[C@@H](CC#N)C3)cc21 [Example 163, 2-((S)-1-(1-(4-((R)-2,6-dioxopiperidin-3-yl)-3,5-difluorophenyl)piperidin-4-yl)-4-((7^1R,7^3S,E)-1^1,1^3,2^6-trimethyl-3-oxo-5^2,5^3-dihydro-1^1H,5^1H-9-oxa-4-aza-5(2,1)-benzo[d]imidazola-2(2,4)-pyridina-1(4,5)-pyrazola-7(1,3)-cyclopentanacyclononaphane-5^6-yl)piperazin-2-yl)acetonitrile]	4.4	88.1	2.97	82.5	94.53	2.24	96.05	0.6
